Assay results as given in the NIST ThermoML archive (doi:10.1021/acs.jced.8b00160).
± gives the expanded uncertainty stated by the source.

How the values were obtained:
[1] = wn = mass fraction of the nth substance listed; conditions: 100 kPa, Liquid, Vibrating tube method
[2] = refractive index (Na D-line) (dimensionless); wn = mass fraction of the nth substance listed; conditions: 100 kPa, Liquid, Standard Abbe refractometry
[3] = refractive index (Na D-line) (dimensionless); conditions: 100 kPa, Liquid, Standard Abbe refractometry

O=P([O-])([O-])O.[K+].[K+] [dipotassium hydrogen phosphate] + O
mass density ([1]; 298.15 K, w1 = 0.02): 1014.3 ± 20 kg/m3
mass density ([1]; 298.15 K, w1 = 0.05): 1040.9 ± 20 kg/m3
mass density ([1]; 298.15 K, w1 = 0.1): 1086.7 ± 20 kg/m3
mass density ([1]; 298.15 K, w1 = 0.15): 1134 ± 20 kg/m3
mass density ([1]; 298.15 K, w1 = 0.2): 1183.1 ± 20 kg/m3
mass density ([1]; 298.15 K, w1 = 0.25): 1234.3 ± 20 kg/m3
mass density ([1]; 298.15 K, w1 = 0.3): 1287.3 ± 20 kg/m3
refractive index ([2]; 298.15 K, w1 = 0.02): 1.336 ± 0.002
refractive index ([2]; 298.15 K, w1 = 0.05): 1.3401 ± 0.002
refractive index ([2]; 298.15 K, w1 = 0.1): 1.3478 ± 0.002
refractive index ([2]; 298.15 K, w1 = 0.15): 1.3551 ± 0.002
refractive index ([2]; 298.15 K, w1 = 0.2): 1.3626 ± 0.002
refractive index ([2]; 298.15 K, w1 = 0.25): 1.3697 ± 0.002
refractive index ([2]; 298.15 K, w1 = 0.3): 1.3774 ± 0.002

CC(C)O [propan-2-ol] + O
mass density ([1]; 298.15 K, w1 = 0.1): 979.9 ± 20 kg/m3
mass density ([1]; 298.15 K, w1 = 0.2): 966.6 ± 20 kg/m3
mass density ([1]; 298.15 K, w1 = 0.3): 946 ± 20 kg/m3
mass density ([1]; 298.15 K, w1 = 0.4): 925.7 ± 20 kg/m3
mass density ([1]; 298.15 K, w1 = 0.5): 901.7 ± 20 kg/m3
mass density ([1]; 298.15 K, w1 = 0.6): 879 ± 20 kg/m3
mass density ([1]; 308.15 K, w1 = 0.1): 976.9 ± 20 kg/m3
mass density ([1]; 308.15 K, w1 = 0.2): 958.7 ± 20 kg/m3
mass density ([1]; 308.15 K, w1 = 0.3): 941.9 ± 20 kg/m3
mass density ([1]; 308.15 K, w1 = 0.4): 916.8 ± 20 kg/m3
mass density ([1]; 308.15 K, w1 = 0.5): 896.2 ± 20 kg/m3
mass density ([1]; 308.15 K, w1 = 0.6): 871.6 ± 20 kg/m3
mass density ([1]; 318.15 K, w1 = 0.1): 973.7 ± 20 kg/m3
mass density ([1]; 318.15 K, w1 = 0.2): 954.8 ± 20 kg/m3
mass density ([1]; 318.15 K, w1 = 0.3): 934.4 ± 20 kg/m3
mass density ([1]; 318.15 K, w1 = 0.4): 911.5 ± 20 kg/m3
mass density ([1]; 318.15 K, w1 = 0.5): 887.6 ± 20 kg/m3
mass density ([1]; 318.15 K, w1 = 0.6): 862.4 ± 20 kg/m3
refractive index ([2]; 298.15 K, w1 = 0.1): 1.3418 ± 0.002
refractive index ([2]; 298.15 K, w1 = 0.2): 1.3506 ± 0.002
refractive index ([2]; 298.15 K, w1 = 0.3): 1.3573 ± 0.002
refractive index ([2]; 298.15 K, w1 = 0.4): 1.3629 ± 0.002
refractive index ([2]; 298.15 K, w1 = 0.5): 1.367 ± 0.002
refractive index ([2]; 298.15 K, w1 = 0.6): 1.3705 ± 0.002
refractive index ([2]; 308.15 K, w1 = 0.1): 1.3372 ± 0.002
refractive index ([2]; 308.15 K, w1 = 0.2): 1.3475 ± 0.002
refractive index ([2]; 308.15 K, w1 = 0.3): 1.3559 ± 0.002
refractive index ([2]; 308.15 K, w1 = 0.4): 1.3623 ± 0.002
refractive index ([2]; 308.15 K, w1 = 0.5): 1.3668 ± 0.002
refractive index ([2]; 308.15 K, w1 = 0.6): 1.3694 ± 0.002
refractive index ([2]; 318.15 K, w1 = 0.1): 1.3356 ± 0.002
refractive index ([2]; 318.15 K, w1 = 0.2): 1.3447 ± 0.002
refractive index ([2]; 318.15 K, w1 = 0.3): 1.3531 ± 0.002
refractive index ([2]; 318.15 K, w1 = 0.4): 1.3596 ± 0.002
refractive index ([2]; 318.15 K, w1 = 0.5): 1.3643 ± 0.002
refractive index ([2]; 318.15 K, w1 = 0.6): 1.3679 ± 0.002

O=P([O-])([O-])[O-].[K+].[K+].[K+] [tripotassium phosphate] + O
mass density ([1]; 298.15 K, w1 = 0.02): 1015.8 ± 20 kg/m3
mass density ([1]; 298.15 K, w1 = 0.05): 1048.6 ± 20 kg/m3
mass density ([1]; 298.15 K, w1 = 0.1): 1106.7 ± 20 kg/m3
mass density ([1]; 298.15 K, w1 = 0.15): 1176.8 ± 20 kg/m3
mass density ([1]; 298.15 K, w1 = 0.2): 1203.4 ± 20 kg/m3
mass density ([1]; 298.15 K, w1 = 0.25): 1226.9 ± 20 kg/m3
mass density ([1]; 298.15 K, w1 = 0.3): 1241.7 ± 20 kg/m3
mass density ([1]; 308.15 K, w1 = 0.02): 1011.9 ± 20 kg/m3
mass density ([1]; 308.15 K, w1 = 0.05): 1045 ± 20 kg/m3
mass density ([1]; 308.15 K, w1 = 0.1): 1102.7 ± 20 kg/m3
mass density ([1]; 308.15 K, w1 = 0.15): 1172.6 ± 20 kg/m3
mass density ([1]; 308.15 K, w1 = 0.2): 1199.8 ± 20 kg/m3
mass density ([1]; 308.15 K, w1 = 0.25): 1223.5 ± 20 kg/m3
mass density ([1]; 308.15 K, w1 = 0.3): 1237.1 ± 20 kg/m3
mass density ([1]; 318.15 K, w1 = 0.02): 1008.3 ± 20 kg/m3
mass density ([1]; 318.15 K, w1 = 0.05): 1040.4 ± 20 kg/m3
mass density ([1]; 318.15 K, w1 = 0.1): 1100.3 ± 20 kg/m3
mass density ([1]; 318.15 K, w1 = 0.15): 1171.1 ± 20 kg/m3
mass density ([1]; 318.15 K, w1 = 0.2): 1194.9 ± 20 kg/m3
mass density ([1]; 318.15 K, w1 = 0.25): 1218 ± 20 kg/m3
mass density ([1]; 318.15 K, w1 = 0.3): 1231.8 ± 20 kg/m3
refractive index ([2]; 298.15 K, w1 = 0.02): 1.3356 ± 0.002
refractive index ([2]; 298.15 K, w1 = 0.05): 1.3413 ± 0.002
refractive index ([2]; 298.15 K, w1 = 0.1): 1.3537 ± 0.002
refractive index ([2]; 298.15 K, w1 = 0.15): 1.3651 ± 0.002
refractive index ([2]; 298.15 K, w1 = 0.2): 1.3792 ± 0.002
refractive index ([2]; 298.15 K, w1 = 0.25): 1.3962 ± 0.002
refractive index ([2]; 298.15 K, w1 = 0.3): 1.418 ± 0.002
refractive index ([2]; 308.15 K, w1 = 0.02): 1.3346 ± 0.002
refractive index ([2]; 308.15 K, w1 = 0.05): 1.3402 ± 0.002
refractive index ([2]; 308.15 K, w1 = 0.1): 1.3512 ± 0.002
refractive index ([2]; 308.15 K, w1 = 0.15): 1.3632 ± 0.002
refractive index ([2]; 308.15 K, w1 = 0.2): 1.3768 ± 0.002
refractive index ([2]; 308.15 K, w1 = 0.25): 1.3928 ± 0.002
refractive index ([2]; 308.15 K, w1 = 0.3): 1.4109 ± 0.002
refractive index ([2]; 318.15 K, w1 = 0.02): 1.3337 ± 0.002
refractive index ([2]; 318.15 K, w1 = 0.05): 1.3386 ± 0.002
refractive index ([2]; 318.15 K, w1 = 0.1): 1.3488 ± 0.002
refractive index ([2]; 318.15 K, w1 = 0.15): 1.3606 ± 0.002
refractive index ([2]; 318.15 K, w1 = 0.2): 1.3736 ± 0.002
refractive index ([2]; 318.15 K, w1 = 0.25): 1.3885 ± 0.002
refractive index ([2]; 318.15 K, w1 = 0.3): 1.4029 ± 0.002

O [water]
refractive index ([3]; 298.15 K): 1.3324 ± 0.002
refractive index ([3]; 308.15 K): 1.3302 ± 0.002
refractive index ([3]; 318.15 K): 1.3298 ± 0.002
